How the values were obtained:
Assay type in all cases: in vivo
Resistant Bemisia tabaci = Resistant Bemisia tabaci (rBT); settings: resistant strain biotype Q, adults on cotton leaf discs, mortality 4 days after treatment; 0 = BP80 >50 ppm
Protocol: (§1) Cotton leaf discs were placed upside down in petri dishes on water agar and treated with the diluted test solutions in a spray chamber. After drying, leaf discs were infested with 10 adult Bemisia tabaci. Dishes were covered with a fabric filter and sealed with a perforated plastic lid. 4 days after treatment samples were assessed for mortality.
Resistant Bemisia tabaci (rBT)
Biotype Q originally field-collected in 2000 from Almeria, Spain. […] The strain carried the mutation L925I in the voltage-gated sodium channel conferring resistance to pyrethroids. It also had higher expression of the p450 CYP6CM1 conferring metabolic resistance to neonicotinoids.

Resistant Myzus persicae = Resistant Myzus persicae (rMP); settings: resistant strain, pepper plants, spray, mortality 5 days after treatment; 0 = BP80 >50 ppm
Myzus persicae = Myzus persicae (green peach aphid), mixed population, feeding/contact (sMP); settings: sensitive strain, pepper plants, spray, mortality 5 days after treatment; 0 = BP80 >50 ppm
Protocol: Myzus persicae (Green Peach Aphid), Mixed Population, Feeding/Contact (sMP)
Pepper plants were infested with an Myzus persicae population of mixed ages. One day after infestation the plants were treated with the diluted test solutions in a spray chamber. 5 days after treatment samples were assessed for mortality.

Bemisia tabaci = Bemisia tabaci (cotton whitefly), adult, feeding/contact (sBT); settings: sensitive strain, adults on cotton leaf discs, mortality 4 days after treatment; 0 = BP80 >50 ppm
Protocol: Bemisia tabaci (Cotton Whitefly), Adult, Feeding/Contact (sBT)
as §1

With CC[S@@](=N)(=O)c1cc(C2(C#N)CC2)cnc1-c1nc2cc(C(F)(F)F)cnc2n1C [P24, (R)-1-[5-(ethyl-sulfonimidoyl)-6-[3-methyl-6-(trifluoromethyl)imidazo[4,5-b]pyridin-2-yl]-3-pyridyl]cyclo-propanebonitrile] as the compound, how does the “pBP80 rBT” value (Resistant Bemisia tabaci) read?
Its value is 3.9.

What about the “pBP80 r-MP” value (Resistant Myzus persicae) of the same compound?
Its value is 4.5.

What about the “pBP80 s-MP” value (Myzus persicae) of the same compound?
Its value is 5.2.

What about the “pBP80 sBT” value (Bemisia tabaci) of the same compound?
Its value is 5.1.

From patent publication US20260271928A1, “CONTROL OF PESTS RESISTANT TO INSECTICIDES” (Syngenta Crop Protection Ag, priority 2023, published 2026)
